Laboratory results from patent publication US20230190883A1, “STABLE PEPTIDES HAVING RENALASE AGONIST ACTIVITY” (Bessor Pharma, LLC, priority 2020, published 2023).
Marks after values point to notes of the source that are not given here.

Key:
[1] = test system: carrageenan-induced Paw edema; assay: carrageenan-induced paw edema (CPE) model in mice; assay type: in vivo, CD-1 mice; conditions: for activity at 2 hours: 2 hours after carrageenan
Description: This test is a rapid in vivo model for evaluation of anti-inflammatory efficacy of test articles. The CPE model in mice quantitativdy assesses inhibition of edema enduced by subplantarinjection of carrageenan. […] Carrageenan-induced inflammation invoves extravasation of polymorphonuclear leukocytes from circulation to the site of inflammation. The subsequent release of myeloperoxidase and other cytokines within the interstitial tissues results in plasma exudation into the site of inflammation. The increased paw volume is measured by water displacement. Anti-inflammatory drugs reduce the paw edema.
• 1. Receive (SOP 1910, SOP 1920) and quarantine (SOP 560) 125 CD-1 mice (Charles River Laboratories, male, 5-6 weeks old). • 2. Animals are ear tagged (SOP 810), weighed, and sorted into 9 groups with 10 animals/group and 5 groups of 7 animals/group based upon average body weight. • 3. Prepare 3% carrageenan solution: • 1) Preparation at least 2 weeks in advance of use. • 2) Weigh out 600 mg A-carrageenan into a glass beaker. • 3) Add 20 ml deionized water. • 4) Stir on mild heat until carrageenan fully dissolved. • 5) Cool solution to ambient temperature. • 6) Store at 4-8° C. • 4. Until the day of use the renalase peptides are stored at -20° C. as dry powder. • 5. DAY 0 • a. Prepare test material in sterile saline (vehicle). • b. On the day of dosing, renalase peptides are dissolved. • c. On day prior to administration check carrageenan solution for clarity (no visible evidence of contamination). • 1) Equilibrate carrageenan to ambient temperature. • d. Record mouse weights in laboratory notebook. • e. Measure and record paw initial paw volumes: • 1) Place beaker of water on balance and tare to zero. • 2) Place right hind limb in the beaker of water on the scale with the top of the hock centered in the meniscus of the water. Record read-out on the scale. • 3) The foot must be dried after each measurement as wet feet will change the readout. • 4) Re-tare the scale between measurements to account for decrease in water volume. • f. […]
The test was also conducted to compare the inhibition of inflammation by peptide 10 as compared to the corresponding peptide fragment without the alanine substitution at position 220 (peptide 81).

[2] = test system: cisplatin induced kidney injury; assay: cisplatin-induced kidney injury in vivo
Description: A key measure of this toxicity is a decrease in kidney mass; this is limited when Renalase A (205-240)-OH is given. More dramatic is the effect of peptide on the reduced renal function seen with cisplatin induced renal injury.

severe viral infection = assay: model of severe viral infection in renalase-deficient mice; conditions: FIG. 12
cronin 1 = assay: levels of cronin 1, marker for inflammatory cells; conditions: FIG. 14
acute pancreatitis = assay: experimental acute pancreatitis (AP), mouse model; assay type: in vivo
Description: This likely represents inhibition of inflammatory pathways central to AP pathogenesis; a probable target is inflammatory activation (FIG. 5). Since most patients with AP present long after disease onset and later onset responses are most important in determining AP severity, the beneficial effects of peptide 10 should be therapeutically valuable even late in the course of disease. In this context we have shown that RNLS agonists reduce injury when given 2 hrs after the onset of cerulein AP and 12hrs after the induction of arginine AP.

[3] = test system: cultured proximal renal tubule cell line; assay: cisplatin-induced injury of cultured kidney cells; assay type: cell-based
Description: We have shown that a peptide of the invention [Ala^220]-Ac-Renalase A (205-240)-NH2 eliminated cisplatin-induced injury of cultured kidney cells. […] Data are shown below for such RNLS agonists

[4] = test system: cerulin-induced severe pancreatitis; assay: cerulin-induced severe pancreatitis model; assay type: in vivo; conditions: FIG. 13
[5] = test system: renal ischemia reperfusion injury; assay: renal ischemia reperfusion injury, preclinical murine model; assay type: in vivo
COVID-19 mouse model = assay: COVID-19 mouse model, survival; conditions: FIG. 11
[6] = test system: blood from healthy donors; assay type: cell-based
[7] = 10 mpk, * = statistical significance
[8] = peptide at 50 ug/ml, 3 hrs incubation, ELISA, p<0.01

Q: For `C[C@@H]1C[C@H]2[C@@H]3CCC4=CC(=O)C=C[C@]4(C)[C@@]3(F)[C@@H](O)C[C@]2(C)[C@@]1(O)C(=O)CO` [Dexamethasone, reference compound], which “percent change from control, paw edema, 2 hr after carrageenan” value [1, 7] is on record?
A: The value was 51.2* percent.

Q: What about the “percent change from control, paw edema, 4 hr after carrageenan” value ([1]; 10 mpk) of the same compound?
A: Its value is 49.7* percent.

Q: And the “percent change from control, paw edema, 10 hr after carrageenan” value ([1]; 10 mpk)?
A: Its value is 55.6* percent.

Q: Which “percent change from control, paw edema, 2 hr after carrageenan” value ([1]; 5 mpk) does the source give for `COc1ccc2c(c1)c(CC(=O)O)c(C)n2C(=O)c1ccc(Cl)cc1` [Indomethacin, reference compound] here?
A: The value was 79.4* percent.

Q: And the “percent change from control, paw edema, 4 hr after carrageenan” value ([1]; 5 mpk)?
A: Its value is 60.3* percent.

Q: And the “percent change from control, paw edema, 6 hr after carrageenan” value ([1]; 5 mpk)?
A: The value was 42.4* percent.

Q: What about the “percent change from control, paw edema, 10 hr after carrageenan” value ([1]; 5 mpk) of the same compound?
A: Its value is 21.3%.

Q: What does the source list for Renalase A (205-240)-OH [Peptide 81]?
A: plasma creatinine levels ([2]; 17 days of cisplatin treatment (4-fold increase without agonist), FIG. 4 right panel): reduced this toward the normal range; kidney injury after cisplatin-induced treatment ([2]; FIG. 4): reduces kidney injury; decrease in kidney mass ([2]; cisplatin toxicity, FIG. 4): limited; percent change from control, paw edema, 2 hr after carrageenan ([1]; 3 mpk): 14.2%; percent change from control, paw edema, 4 hr after carrageenan ([1]; 3 mpk): 1.6%; percent change from control, paw edema, 6 hr after carrageenan ([1]; 3 mpk): −13.1%; percent change from control, paw edema, 10 hr after carrageenan ([1]; 3 mpk): 2.4%; percent change from control, paw edema, 2 hr after carrageenan [1, 7]: 62.6* percent; percent change from control, paw edema, 4 hr after carrageenan ([1]; 10 mpk): 0.5%; percent change from control, paw edema, 6 hr after carrageenan ([1]; 10 mpk): 2.9%; percent change from control, paw edema, 10 hr after carrageenan ([1]; 10 mpk): 13.3%; activity at 2 hours [1]: active

Q: How did the “protection in severe viral infection” value (severe viral infection) turn out when “[Ala^220]-Ac-Renalase A (205-240)-NH2 (KIDVPWAGQYITSNPAIRFVSIDNKKRNIESSEIGP; N-acetyl, C-terminal amide; Based on homo sapiens sequence) [peptide 10]” was run?
A: The value was “protects”.

Q: And the “levels of cronin 1” value (cronin 1)?
A: The value was “decreases”.

Q: And the “injury in acute pancreatitis” value (acute pancreatitis; FIG. 2)?
A: The value was “reduces injury”.

Q: And the “earliest AP responses (acinar cell related)” value (acute pancreatitis; earliest responses, not shown)?
A: The value was “no effects”.

Q: And the “levels of active trypsin” value (acute pancreatitis; later responses (6 hrs), FIG. 2A)?
A: Its value is “tended to reduce”.

Q: And the tissue neutrophils (acute pancreatitis; later responses (6 hrs), FIG. 2B)?
A: Its tissue neutrophils is “dramatically decrease”.

Q: What about the “mitochondrial injury as determined by OPA-1 and Parkin levels” value (acute pancreatitis; later responses (6 hrs), FIG. 2C, D) of the same compound?
A: Its value is “reduced”.

Q: What about the “cisplatin-induced injury of cultured kidney cells” value [3] of the same compound?
A: Its value is “eliminated”.

Q: What about the “injury in a cultured proximal renal tubule cell line” value ([3]; FIG. 3) of the same compound?
A: The value was “reduces injury”.

Q: What about the “anti-inflammatory effect on paw edema” value ([1]; 0.3-30 mg/kg SC 30 min prior to carrageenan, test period of 10 hours, FIGS. 6 and 7) of the same compound?
A: Its value is “has an anti-inflammatory effect”.

Q: What about the “activity at 2 hours” value [1] of the same compound?
A: The value was “active”.

Q: What about the “activity and duration of activity compared with peptide 81” value ([1]; comparable but different experiments, same protocols) of the same compound?
A: Its value is “more active and longer active than peptide 81”.

Q: And the “activity for longer periods of time” value ([1]; later than 2 hours)?
A: Its value is “only peptide 10 was active”.

Q: And the “activity compared with standards” value ([1]; versus dexamethasone and indomethacin)?
A: The value was “activity more in line with standards dexamethasone and indomethacin”.

Q: And the necrosis [4]?
A: Its necrosis is “effective in reducing necrosis”.

Q: What about the “renal ischemia reperfusion injury” value [5] of the same compound?
A: The value was “reduced”.

Q: What about the survival (COVID-19 mouse model) of the same compound?
A: The survival was “improves survival”.

Q: What about the “inflammatory response to SARS-CoV-2 peptides” value ([6]; FIG. 5) of the same compound?
A: The value was “decreases”.

Q: And the “SARS-CoV-2-peptide induced increase of IL1-beta” value [6, 8]?
A: Its value is “inhibited”.

Q: And the “SARS-CoV-2-peptide induced increase of IL6” value [6, 8]?
A: The value was “inhibited”.

Q: And the “SARS-CoV-2-peptide induced increase of TNF-alpha” value [6, 8]?
A: The value was “inhibited”.

Q: What about the “SARS-CoV-2 peptide S and M induced levels of interferon-gamma” value ([6]; peptide at 50 ug/ml, SARS-CoV-2 peptides 0.19 nM, 3 hrs incubation, ELISA) of the same compound?
A: Its value is “dramatically decreased”.
